Holding throughout (format): biochemical
The target of experiment [1] is T1, recombinant human MAO-A (monoamine oxidase-A) (Homo sapiens, UniProt P21397).
T1 construct: purchased Sigma-Aldrich
T1 sequence (P21397 1-527): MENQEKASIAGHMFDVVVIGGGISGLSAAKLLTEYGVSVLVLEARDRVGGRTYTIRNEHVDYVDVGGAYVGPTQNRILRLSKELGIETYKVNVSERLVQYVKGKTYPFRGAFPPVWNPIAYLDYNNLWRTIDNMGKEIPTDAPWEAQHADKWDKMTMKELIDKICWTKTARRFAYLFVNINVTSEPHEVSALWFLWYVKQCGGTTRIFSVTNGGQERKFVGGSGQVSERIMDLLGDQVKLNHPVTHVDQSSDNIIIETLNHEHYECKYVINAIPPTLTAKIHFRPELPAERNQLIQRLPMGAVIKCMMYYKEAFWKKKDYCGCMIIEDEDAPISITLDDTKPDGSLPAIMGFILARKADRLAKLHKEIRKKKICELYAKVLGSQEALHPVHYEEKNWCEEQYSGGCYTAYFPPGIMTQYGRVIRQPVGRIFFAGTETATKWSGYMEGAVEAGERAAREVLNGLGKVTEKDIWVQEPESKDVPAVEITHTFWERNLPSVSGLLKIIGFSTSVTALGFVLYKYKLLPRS
Description: Activity on recombinant human MAO-A, Amplex Red method, 0.5 mM tyramine substrate. As to conditions: read-out: Inhibitory Activity (IC50, nM) MAO-A. The procedure, abridged:
(§1)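 Fluorescence (544/590 nm) of resorufin formed from Amplex Red by HRP and enzyme-generated H2O2 was followed over 1-2 h. Substrates were 0.5 mM tyramine for MAO-A and 1 mM benzylamine for MAO-B; compounds were preincubated with enzyme for 30 min at 37° C. IC50 came from four-parameter logistic fitting of signal-rate inhibition.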

The target of the next experiment is T2, recombinant human VAP-1 (Homo sapiens, UniProt Q16853).
T2 construct: purchased R&D systems
T2 sequence (Q16853 1-763): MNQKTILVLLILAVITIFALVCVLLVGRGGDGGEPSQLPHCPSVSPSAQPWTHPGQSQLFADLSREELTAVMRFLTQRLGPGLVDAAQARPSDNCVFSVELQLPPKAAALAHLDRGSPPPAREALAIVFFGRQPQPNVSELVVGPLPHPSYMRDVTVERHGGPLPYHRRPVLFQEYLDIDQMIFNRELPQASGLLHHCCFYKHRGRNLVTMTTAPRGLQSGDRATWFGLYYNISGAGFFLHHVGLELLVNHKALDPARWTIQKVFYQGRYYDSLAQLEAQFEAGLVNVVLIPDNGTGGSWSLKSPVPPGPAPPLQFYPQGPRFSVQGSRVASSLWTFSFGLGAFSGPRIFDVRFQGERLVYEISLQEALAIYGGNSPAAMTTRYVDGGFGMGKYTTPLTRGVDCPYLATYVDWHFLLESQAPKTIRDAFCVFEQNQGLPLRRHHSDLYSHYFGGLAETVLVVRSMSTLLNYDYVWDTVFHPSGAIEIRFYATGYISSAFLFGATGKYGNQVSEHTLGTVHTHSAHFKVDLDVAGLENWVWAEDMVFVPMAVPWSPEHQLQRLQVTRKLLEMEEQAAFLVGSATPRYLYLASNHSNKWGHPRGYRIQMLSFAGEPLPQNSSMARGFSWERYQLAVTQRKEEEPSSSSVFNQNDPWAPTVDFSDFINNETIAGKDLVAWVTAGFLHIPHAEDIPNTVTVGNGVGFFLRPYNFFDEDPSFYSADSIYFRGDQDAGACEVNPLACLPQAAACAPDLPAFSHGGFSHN
Description: Activity on recombinant human VAP-1, Amplex Red HRP-coupled hydrogen peroxide assay, benzylamine substrate. As to conditions: recombinant human VAP-1, benzylamine substrate, read-out: Inhibitory Activity (IC50, nM) human VAP-1. In short, it runs like this:
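Fluorescence of resorufin formed from H2O2 (ex 544 nm, em 590 nm) was tracked for 1-2 h after adding 1 mM benzylamine, 200 uM Amplex Red and 1 U/mL HRP to enzyme pretreated with compound for 30 min at 37 °C. IC50 values derive from four-variable logistic fits.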

In experiment [2] the target is T3, recombinant human DAO (diamine oxidase) (Homo sapiens, UniProt P19801).
T3 construct: purchased R&D systems
T3 sequence (P19801 20-751): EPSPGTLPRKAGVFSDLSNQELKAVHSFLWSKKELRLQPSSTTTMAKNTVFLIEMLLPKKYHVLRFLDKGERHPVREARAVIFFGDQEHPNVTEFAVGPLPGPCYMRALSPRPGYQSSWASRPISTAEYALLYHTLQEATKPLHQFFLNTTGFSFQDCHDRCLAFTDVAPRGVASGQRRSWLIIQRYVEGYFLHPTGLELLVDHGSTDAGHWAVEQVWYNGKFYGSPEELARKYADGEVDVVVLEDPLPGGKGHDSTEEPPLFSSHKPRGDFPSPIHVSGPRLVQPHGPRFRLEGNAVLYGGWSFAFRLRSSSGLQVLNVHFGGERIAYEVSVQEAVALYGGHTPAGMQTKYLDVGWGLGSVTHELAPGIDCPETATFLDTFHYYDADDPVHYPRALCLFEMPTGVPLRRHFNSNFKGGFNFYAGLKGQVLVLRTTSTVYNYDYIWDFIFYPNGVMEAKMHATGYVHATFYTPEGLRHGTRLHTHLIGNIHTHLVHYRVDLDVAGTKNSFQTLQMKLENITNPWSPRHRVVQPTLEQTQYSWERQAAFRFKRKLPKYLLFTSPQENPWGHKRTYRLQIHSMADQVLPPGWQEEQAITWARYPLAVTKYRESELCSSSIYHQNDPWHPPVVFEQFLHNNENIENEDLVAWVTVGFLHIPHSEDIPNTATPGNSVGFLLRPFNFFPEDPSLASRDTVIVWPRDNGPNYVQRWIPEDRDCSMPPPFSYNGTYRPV
Description: Activity on recombinant human DAO, Amplex Red method, 1 mM putrescine substrate. As to conditions: recombinant human DAO, read-out: Inhibitory Activity (IC50, nM) DAO. The procedure, abridged:
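Inhibition of recombinant human DAO (diamine oxidase, R&D systems) was assessed with the Amplex Red Hydrogen Peroxide Assay Kit. Hydrogen peroxide produced from 1 mM putrescine was detected through an HRP-coupled reaction that converts Amplex Red into fluorescent resorufin, read at 544 nm excitation and 590 nm emission. IC50 values came from four-parameter logistic fits in GraphPad Prism.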

The target in experiment [3] is T4, recombinant human MAO-B (monoamine oxidase-B) (Homo sapiens, UniProt P27338).
T4 construct: purchased Sigma-Aldrich
T4 sequence (P27338 1-520): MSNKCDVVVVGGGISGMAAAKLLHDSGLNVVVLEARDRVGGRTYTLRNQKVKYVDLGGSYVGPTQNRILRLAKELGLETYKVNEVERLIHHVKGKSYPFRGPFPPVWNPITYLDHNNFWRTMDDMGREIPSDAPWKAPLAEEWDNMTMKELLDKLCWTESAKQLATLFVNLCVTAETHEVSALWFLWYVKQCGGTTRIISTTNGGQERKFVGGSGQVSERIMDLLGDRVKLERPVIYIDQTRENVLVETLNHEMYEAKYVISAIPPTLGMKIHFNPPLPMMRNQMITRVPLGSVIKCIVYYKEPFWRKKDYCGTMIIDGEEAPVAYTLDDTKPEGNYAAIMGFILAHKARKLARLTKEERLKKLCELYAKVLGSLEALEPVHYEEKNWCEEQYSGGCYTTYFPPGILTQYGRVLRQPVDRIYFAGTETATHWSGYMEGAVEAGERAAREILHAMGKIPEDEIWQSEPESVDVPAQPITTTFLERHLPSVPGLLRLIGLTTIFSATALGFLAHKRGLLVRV
Nature of the experiment: Activity on recombinant human MAO-B, Amplex Red method, 1 mM benzylamine substrate. As to conditions: read-out: Inhibitory Activity (IC50, nM) MAO-B. The procedure, abridged:
as §1

[4] abbreviates: 1 mM putrescine, * = between 10 and 100 nM, ** = between 300 and 1000 nM.

Molecules are shown by their SMILES. Where a name gives a salt, the structure may show the parent alone. Read-outs that look alike come from different tables or passages of the source.

As to `NC/C(=C\F)Cn1ncn(-c2ccnc(-c3ccc(C(=O)N4CCOCC4)cc3)c2)c1=O` [Example 208, 2-[(2E)-2-(aminomethyl)-3-fluoroprop-2-en-1-yl]-4-{2-[4-(morpholin-4-ylcarbonyl)phenyl]pyridin-4-yl}-2,4-dihydro-3H-1,2,4-triazol-3-one hydrochloride], the 50% inhibitory concentration (IC50) in experiment [1] (0.5 mM tyramine substrate) was over 100000 nM; on recombinant human VAP-1 it was 0.89 nM; in experiment [2] (1 mM putrescine substrate), under 10 nM; in experiment [3] (1 mM benzylamine substrate), over 10000 nM.
`NC/C(=C\F)Cn1ncn(-c2cccc(-c3ccc(N4CCOCC4)c(Cl)c3)c2)c1=O` [Example 76, 2-[(2E)-2-(aminomethyl)-3-fluoroprop-2-en-1-yl]-4-[3′-chloro-4′-(morpholin-4-yl)biphenyl-3-yl]-2,4-dihydro-3H-1,2,4-triazol-3-one hydrochloride]: the half-maximal inhibitory concentration (IC50) is over 100000 nM in experiment [1] (0.5 mM tyramine), 0.64 nM on recombinant human VAP-1 (30 min preincubation at 37° C.), under 100 nM in experiment [2] (setting [4]) and over 10000 nM in experiment [3] (1 mM benzylamine).
`Cc1cc(-c2ccc(-c3cnon3)cc2)cnc1-n1cnn(C/C(=C/F)CN)c1=O` [Example 138, 2-[(2E)-2-(aminomethyl)-3-fluoroprop-2-en-1-yl]-4-{3-methyl-5-[4-(1,2,5-oxadiazol-3-yl)phenyl]pyridin-2-yl}-2,4-dihydro-3H-1,2,4-triazol-3-one hydrochloride]: the IC50 came to 84000 nM in experiment [1] (0.5 mM tyramine), 0.7 nM on recombinant human VAP-1 (30 min preincubation at 37° C.), 240 nM in experiment [2] (setting [4]) and 1100 nM in experiment [3] (1 mM benzylamine).
As to `NC/C(=C\F)Cn1ncn(-c2cccc(C#Cc3cnc4c(c3)OCCN4)n2)c1=O` [Example 252, 2-[(E)-2-(aminomethyl)-3-fluoro-allyl]-4-[6-[2-(3,4-dihydro-2H-pyrido[3,2-b][1,4]oxazin-7-yl)ethynyl]-2-pyridyl]-1,2,4-triazol-3-one], the IC50 in experiment [1] (0.5 mM tyramine substrate) was over 100000 nM; at recombinant human VAP-1, 0.6 nM; in experiment [2] (1 mM putrescine substrate) it was 53 nM; in experiment [3] (1 mM benzylamine substrate), over 10000 nM.
For the compound `Cc1cc(-c2cccc(-c3nnc[nH]3)c2)cnc1-n1cnn(C/C(=C/F)CN)c1=O` [Example 137, 2-[(2E)-2-(aminomethyl)-3-fluoroprop-2-en-1-yl]-4-{3-methyl-5-[3-(4H-1,2,4-triazol-3-yl)phenyl]pyridin-2-yl}-2,4-dihydro-3H-1,2,4-triazol-3-one], the IC50 was 34000 nM in experiment [1] (0.5 mM tyramine), 0.5 nM on recombinant human VAP-1 (30 min preincubation at 37° C.), 120 nM in experiment [2] (setting [4]) and 3790 nM in experiment [3] (1 mM benzylamine).
For the compound `NC/C(=C\F)Cn1ncn(-c2cccc(-c3ccc(N4CCCC4)cc3)n2)c1=O` [Example 183, 2-[(2E)-2-(aminomethyl)-3-fluoroprop-2-en-1-yl]-4-{6-[4-(pyrrolidin-1-yl)phenyl]pyridin-2-yl}-2,4-dihydro-3H-1,2,4-triazol-3-one hydrochloride], the IC50 in experiment [1] (0.5 mM tyramine substrate) was 13000 nM; at recombinant human VAP-1 it was 2.5 nM; in experiment [2] (1 mM putrescine substrate) it was 350 nM; in experiment [3] (1 mM benzylamine substrate) it was over 10000 nM.
`Cc1ccc(-c2ccc3cn[nH]c3c2)nc1-n1cnn(C/C(=C/F)CN)c1=O` [Example 214, 2-[(2E)-2-(aminomethyl)-3-fluoroprop-2-en-1-yl]-4-[6-(1H-indazol-6-yl)-3-methylpyridin-2-yl]-2,4-dihydro-3H-1,2,4-triazol-3-one hydrochloride]: the IC50 is over 100000 nM in experiment [1] (0.5 mM tyramine substrate), 23 nM on recombinant human VAP-1, 1400 nM in experiment [2] (1 mM putrescine substrate) and over 100000 nM in experiment [3] (1 mM benzylamine substrate).
`CN(C)c1ccc(-c2cccc(-n3cnn(C/C(=C/F)CN)c3=O)n2)cn1` [Example 188, 2-[(2E)-2-(aminomethyl)-3-fluoroprop-2-en-1-yl]-4-[6′-(dimethylamino)-2,3′-bipyridin-6-yl]-2,4-dihydro-3H-1,2,4-triazol-3-one hydrochloride]: the IC50 in experiment [1] (0.5 mM tyramine substrate) was over 100000 nM; on recombinant human VAP-1, 0.6 nM; in experiment [2] (1 mM putrescine substrate), 4 nM; in experiment [3] (1 mM benzylamine substrate), 23000 nM.
As to `Cc1cc(-c2cccc(-c3ncon3)c2)cnc1-n1cnn(C/C(=C/F)CN)c1=O` [Example 140, 2-[(2E)-2-(aminomethyl)-3-fluoroprop-2-en-1-yl]-4-{3-methyl-5-[3-(1,2,4-oxadiazol-3-yl)phenyl]pyridin-2-yl}-2,4-dihydro-3H-1,2,4-triazol-3-one], the half-inhibitory concentration (IC50) in experiment [1] (0.5 mM tyramine) is 3400 nM; on recombinant human VAP-1 (30 min preincubation at 37° C.), 0.79 nM; in experiment [2] (setting [4]), 13000 nM; in experiment [3] (1 mM benzylamine), 3100 nM.
With `NC/C(=C\F)Cn1ncn(-c2ncc(-c3ccc(-c4ncon4)cc3)s2)c1=O` [Example 229], the IC50 in experiment [1] (0.5 mM tyramine substrate) is 130 nM; at recombinant human VAP-1, 0.98 nM; in experiment [2] (1 mM putrescine substrate) it was under 100 nM; in experiment [3] (1 mM benzylamine substrate), 12 nM.

By IC50 is commonly meant the concentration needed to halve the response being measured.

The values are drawn from patent publication US11492335B2, “Aryl or heteroaryl triazolone derivatives or salts thereof, or pharmaceutical compositions comprising the same” (YUHAN CORPORATION, priority 2018, dated 2022).
